Test results from patent US6355616B1, “Derivative compounds derived from or based on bactericidal/permeability-increasing protein” (priority 1999, dated 2002).

B1: BPI: protein isolated from the granules of mammalian polymorphonuclear leukocytes (protein, UniProt P17213 32-487, looked up)
Bactericidal …: VNPGVVVRISQKGLDYASQQGTAALQKELKRIKIPDYSDSFKIKHLGKGHYSFYSMDIREFQLPSSQISMVPNVGLKFSISNANIKISGKWKAQKRFLKMSGNFDLSIEGMSISADLKLGSNPTSGKPTITCSSCSSHINSVHVHISKSKVGWLIQLFHKKIESALRNKMNSQVCEKVTNSVSSELQPYFQTLPVMTKIDSVAGINYGLVAPPATTAETLDVQMKGEFYSENHHNPPPFAPPVMEFPAAHDRMVYLGLSDYFFNTAGLVYQEAGVLKMTLRDDMIPKESKFRLTTKFFGTFLPEVAKKFPNMKIQIHVSASTPPHLSVQPTGLTFYPAVDVQAFAVLPNSSLASLFLIGMHTTGSMEVSAESNRLVGELKLDRLLLELKHSNIGPFPVELLQDIMNYIVPILVLPRVNEKLQKGFPLPTPARVQLYNVVLQPHQNFLLFGADVVYK

What was measured:
Candida albicans SLU-1 = test: Radial diffusion assay; type: cell-based; conditions: 30 mm^2 area of growth inhibition, calculated by PROBIT analysis
Method: In the radial diffusion assay procedures, the CA-1 cultures and derivatized peptide solutions were prepared as in the broth microdilution assay procedure described above, i.e., CA-1 was grown to exponential phase in SDB. Ten (10) mL of molten underlayer agarose comprising 3% Sabouraud Dextrose broth, 1% agarose (Pharmacia, Piscataway, N.J.), 0.02% Tween 20, and 10 mM sodium phosphate at pH 7.4, was added to polystyrene tubes and maintained in a 56° C. water bath until the addition of yeast. Tubes were cooled to approximately 45° C., yeast were added to give a final concentration of 1×10^6 CFU/mL, and the tubes were mixed again by inverting. The contents were poured into leveled, square petri dishes and distributed evenly. […] A series of wells were punched into the hardened agarose using a sterile 3 mm punch attached to a vacuum apparatus to achieve a uniform, 3 mm diameter well.
Derivatized peptide sequences to be assayed were 2-fold serially diluted in 10 mM Dulbecco's PBS (D-PBS) starting from a concentration of approximately […]. Five μL of each dilution were added to each well and the plates were incubated at 37° C. for 3 hours to allow for complete diffusion of the test compounds. An overlayer of 10 mL of molten agarose comprising 6% Sabouraud Dextrose broth, 1% agarose, and 10 mM sodium phosphate, pH 7.4, (at approximately 45° C.) was then added and plates were incubated overnight at 37° C. Following this overnight incubation, a dilute Coomassie solution was poured into the plates and allowed to stain for 24 hours to enhance visualization of the zones.
Clear zones of growth inhibition around each well were measured with calipers. The actual area of growth inhibition (mm^2) was calculated by subtracting the area of the well. Table II below sets out the results of the radial diffusion assays for a series of tested peptide-based constructs in terms of the number of picomoles (pmol) of compound required to establish a 30 mm^2 area of growth inhibition of Candida albicans SLU-1 calculated by PROBIT analysis (e.g., calculated from regression of the linear portion of log-concentration dose-response curve, log pmol/well vs. net area of inhibition).

[1] = system: Candida albicans designated CA-1, Strain SLU-1; type: cell-based; conditions: designated CA-1, Strain SLU-1, 24 h
Method: In each broth microdilution assay screening procedure, a colony of Candida albicans designated CA-1, Strain SLU-1 that was received from the laboratories of G. Matuschak and A. Lechner, St. Louis University Hospital, St. Louis, Mo., where the strain was maintained, was inoculated into a tube containing 5 mL Sabouraud Dextrose broth (2% dextrose, 1% neopeptone) and incubated at 37° C. with shaking. The overnight culture was diluted 1:50 into 5 ml of fresh broth and incubated for 3 hours at 37° C. to exponential phase growth. Organisms were pelleted by centrifugation in a Beckman J-6M centrifuge for 5 minutes at 3000 rpm (1500×g) and the pellets were resuspended in 5 mL phosphate buffered saline (PBS) and the optical density (OD) at 570 nm was determined. On the basis of the determination that one OD unit equals 3×10^7 colony forming units/mL (CFU/mL), yeast cells were diluted to 5×10^3 CFU/mL in Sabouraud Dextrose broth (SBD).
Derivatized peptide sequences based on Domain III of BPI to be screened which were originally constituted in Dulbecco's-PBS, were two-fold serially diluted in SDB starting from a concentration of 128 μg/mL. Equal volumes (100 μL) of yeast suspension as prepared above and derivatized peptide solution were added to wells of a 96-well sterile, flat bottom, non-pyrogenic tissue culture microtiter plate (Costar, Cambridge, Mass.) to reach a final volume of 200 μL/well. The plate was incubated on a shaker at 37° C. for 24 hours. All assays were performed in triplicate. Following the incubation period, plates were read in an ELISA plate reader at 595 nm wavelength to determine the minimum inhibitory concentration (MIC), i.e., the lowest concentration required to reduce the optical density at 595 nm to below 0.1 OD.

Candida albicans, SLU-1 = test: 28-day comparative survival efficacy study in mice systemically infected with Candida albicans; type: in vivo, male DBA/2 mice; conditions: mice infected iv with C. albicans SLU-1; two doses less than 5 mg/kg; initial experiments (p>0.5)
Method: Derivatized peptide-based constructs are tested for activity upon oral administration (oral activity) in a 28-day comparative survival efficacy study in mice systemically infected with Candida albicans. Specifically, male DBA/2 mice (Charles River Laboratories) six weeks of age are dosed with 7.9×10^4 Candida albicans, SLU-1 in 100 μL intravenously via the tail vein in a single dosage on day zero (0). However, other routes of administration, including intraperitoneal (ip) and subcutaneous (sc) routes may be administered. Amphotericin B will provide complete protection at 0.5 mg/kg qod (100% survival). Mortality data will be subjected to Kaplan-Meier survival analysis. All treatment groups may be considered statistically significant vs. saline at p values <0.05.
Treatment begins immediately thereafter with 400 μL oral gavage of either 0.5% dextrose, or derivative compound in 0.5% dextrose at various dosage levels (e.g., 10 mg/kg or 20 mg/kg) according to a prescribed dosing regimen (e.g. every other day for a total of eight times). Amphotericin B (Fungizone®) is administered intravenously at 0.5 mg/kg as a positive control every other day for a total of eight times. Twice-day monitoring (once daily on weekends and holidays) for mortality is performed. The animals treated with antiflngal derivative compound show improvement in mortality compared with the dextrose-treated controls, preferably statistically significant improvement (p-value of […]).

gram-negative bacteria = conditions: broad range of gram-negative bacteria; concentrations as low as; cited from earlier work
[2] = system: Staphylococcus aureus (four strains), Staphylococcus epidermidis, Streptococcus faecalis, Bacillus subtilis, Micrococcus lysodeikticus, and Listeria …; conditions: 160 μg/ml; pH of either 7.0 or 5.5; cited from earlier work
[3] = system: Candida albicans and Candida parapsilosis; conditions: 10^−6 M; pH 7.0 or 5.5; cited from earlier work
[4] = system: human, rabbit and sheep red blood cells and several human tumor cell lines; conditions: cited from earlier work

| Molecule | Radial Diffusion (pmol to achieve 30 mm^2 zone C. albicans SLU1) (Candida albicans SLU-1) | Broth Microdilution (MIC values in μg/mL C. albicans SLU1) [1] | improvement in mortality compared with dextrose-treated controls (Candida albicans, SLU-1) | concentration exhibiting anti-bacterial activity (gram-negative bacteria) | toxic effect on gram-positive organisms [2] | toxic effect on fungi [3] | toxicity to higher eukaryotic cells [4] |
| --- | --- | --- | --- | --- | --- | --- | --- |
| CC[C@@H](C)[C@@H](NC(=O)[C@@H](CC(C)C)NC(=O)[C@@H](Cc1c[nH]c2ccccc12)NC(=O)[C@@H](CCCCN)NC(=O)CCCC[C@@H]1SC[C@@H]2NC(=O)N[C@@H]21)C(=O)N[C@H](CCC(N)=O)C(=O)N[C@H](CC(C)C)C(=O)N[C@H](Cc1ccccc1)C(=O)N[C@H](Cc1c[nH]cn1)C(=O)N[C@H](CCCCN)C(=O)N[C@H](CCCCN)C(N)=O [XMP.519] | 170 pmol | 1 µg/mL | did not exhibit statistically significant improvement |  |  |  |  |
| CC[C@@H](C)[C@@H](NC(=O)[C@@H](CC(C)C)NC(=O)[C@@H](Cc1c[nH]c2ccccc12)NC(=O)[C@@H](CCCCN)NC(=O)c1ccc2c(c1)-c1ccccc1-2)C(=O)N[C@H](CCC(N)=O)C(=O)N[C@H](CC(C)C)C(=O)N[C@H](Cc1ccccc1)C(=O)N[C@H](Cc1c[nH]cn1)C(=O)N[C@H](CCCCN)C(=O)N[C@H](CCCCN)C(N)=O [XMP.534] | >3,371 pmol | 4 µg/mL | did not exhibit statistically significant improvement |  |  |  |  |
| B1 |  |  |  | 10^−8 to 10^−9 M | no toxic effect | no toxic effect | non-toxic |
